Here are results for 7 compounds from patent US11464770B2, “Anticancer pharmaceutical composition” (NATIONAL CANCER CENTER, priority 2016, dated 2022).

The subject of the test is colorectal cancer cell lines (e.g. DLD-1, HCT 116, SW620, HCT-15, HCT-8, RKO). The test is described as follows: Cell based assay, cell viability (CellTiter-Glo), colorectal cancer cell lines. The gist of the method: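 Following a 24 h pre-culture in plates, cells receive test compound (final 0 to 2 μM) for 72 hours. Luminescent quantitation of cellular ATP gives viability.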

Where [1] appears, read: Homo sapiens, DLD-1, 72 hours treatment, read-out: IC50, colorectal cancer cell line DLD-1.
Setting [2] is: Homo sapiens, HCT 116, 72 hours treatment, read-out: IC50, colorectal cancer cell line HCT 116.
Where [3] appears, read: Homo sapiens, HCT-8, 72 hours treatment, read-out: IC50, colorectal cancer cell line HCT-8.
The mark [4] stands for this setting: Homo sapiens, HCT-15, 72 hours treatment, read-out: IC50, colorectal cancer cell line HCT-15.
Setting [5] is: Homo sapiens, HT-29, 72 hours treatment, read-out: IC50, colorectal cancer cell line HT-29.
Setting [6] is: Homo sapiens, LoVo, 72 hours treatment, read-out: IC50, colorectal cancer cell line LoVo.
[7] abbreviates: Homo sapiens, SW480, 72 hours treatment, read-out: IC50, colorectal cancer cell line SW480.
Where [8] appears, read: Homo sapiens, SW-620, SW620, 72 hours treatment, read-out: IC50, colorectal cancer cell line SW620.
Where [9] appears, read: RKO, 72 hours treatment, read-out: IC50, colorectal cancer cell line RKO.
Where [10] appears, read: Homo sapiens, DLD-1 cells, 72 hours treatment, read-out: IC50, colorectal cancer cell line DLD-1.
Where [11] appears, read: Homo sapiens, HCT 116 cells, 72 hours treatment, read-out: IC50, colorectal cancer cell line HCT 116.
The mark [12] stands for this setting: Homo sapiens, HCT-8 cells, 72 hours treatment, read-out: IC50, colorectal cancer cell line HCT-8.
Setting [13] is: Homo sapiens, HCT-15 cells, 72 hours treatment, read-out: IC50, colorectal cancer cell line HCT-15.
The mark [14] stands for this setting: Homo sapiens, HT-29 cells, 72 hours treatment, read-out: IC50, colorectal cancer cell line HT-29.
Setting [15] is: Homo sapiens, LoVo cells, 72 hours treatment, read-out: IC50, colorectal cancer cell line LoVo.
The mark [16] stands for this setting: Homo sapiens, RKO cells, 72 hours treatment, read-out: IC50, colorectal cancer cell line RKO.
The mark [17] stands for this setting: Homo sapiens, SW480 cells, 72 hours treatment, read-out: IC50, colorectal cancer cell line SW480.
The mark [18] stands for this setting: Homo sapiens, SW-620, SW620 cells, 72 hours treatment, read-out: IC50, colorectal cancer cell line SW620.

SMILES strings stand for the structures. Read-outs that look alike come from different tables or passages of the source. Some results are limits rather than exact numbers.

In the case of `CC(=O)c1c([S+]([O-])Cc2ccc(S(F)(F)(F)(F)F)cc2F)[nH]c2c(Br)ccc(Cl)c2c1=O` (stereo not drawn) [Compound 69, 3-acetyl-8-bromo-5-chloro-2-((2-fluoro-4-(pentafluoro-16-sulfanyl)benzyl)sulfinyl)quinolin-4(1H)-one], the 50% inhibitory concentration (IC50) runs as follows: under setting [1], 920 nM; under setting [2], 1520 nM; under setting [3], 1910 nM; under setting [4], 1420 nM; under setting [5], > 10000 nM; under setting [6], > 2000 nM. Moreover, the half-inhibitory concentration (IC50) reads like this: under setting [7], > 2000 nM; under setting [8], 1770 nM; under setting [9], 1540 nM.

Turning to `CC(=O)c1c([S+]([O-])Cc2cccc(S(F)(F)(F)(F)F)c2)[nH]c2c(Br)ccc(Cl)c2c1=O` (stereo not drawn) [Compound 77, 3-acetyl-8-bromo-5-chloro-2-((3-(pentafluoro--sulfanyl)benzyl)sulfinyl)quinolin-4(1H)-one], the half-inhibitory concentration (IC50) is 920 nM under setting [1]; 1450 nM under setting [2]; 1700 nM under setting [3]; 1240 nM under setting [4]; > 10000 nM under setting [5]; > 2000 nM under setting [6]. Besides, the half-inhibitory concentration (IC50) was 1800 nM under setting [7], 1680 nM under setting [8] and 1290 nM under setting [9].

In the case of `CC(=O)c1c([S+]([O-])Cc2ccc(SC(F)(F)F)cc2)[nH]c2c(Cl)ccc(Cl)c2c1=O` (stereo not drawn) [Compound 79, 3-acetyl-5,8-dichloro-2-((4-((trifluoromethyl)thio)benzyl)sulfinyl)quinolin-4(1H)-one], the half-inhibitory concentration (IC50) was > 2000 nM under setting [1]; > 2000 nM under setting [2]; > 2000 nM under setting [3]; > 2000 nM under setting [4]; > 10000 nM under setting [5]; > 2000 nM under setting [6]. Also, the IC50 under setting [7] is > 2000 nM, the IC50 under setting [8] is > 2000 nM and the IC50 under setting [9] is > 2000 nM.

On to `CC(=O)c1c([S+]([O-])Cc2ccc(S(F)(F)(F)(F)F)cc2)[nH]c2c(F)ccc(F)c2c1=O` (stereo not drawn) [Compound 80, 3-acetyl-5,8-difluoro-2-((4-(pentafluoro--sulfanyl)benzyl)sulfinyl)quinolin-4(1H)-one], for which the IC50 reads like this: under setting [1], > 2000 nM; under setting [2], > 2000 nM; under setting [3], > 2000 nM; under setting [4], > 2000 nM; under setting [5], > 10000 nM; under setting [6], > 2000 nM. Further, the IC50 by setting is: under setting [7], > 2000 nM; under setting [8], > 2000 nM; under setting [9], > 2000 nM.

Regarding `CC(=O)c1c([S+]([O-])Cc2ccc(C(F)(F)F)o2)[nH]c2c(F)ccc(F)c2c1=O` (stereo not drawn) [Compound 81, 3-acetyl-5,8-difluoro-2-(((5-(trifluoromethyl)furan-2-yl)methyl)sulfinyl)quinolin-4(1H)-one], the IC50 reads like this: under setting [1], > 2000 nM; under setting [2], > 2000 nM; under setting [3], > 2000 nM; under setting [4], > 2000 nM; under setting [5], > 10000 nM; under setting [6], > 2000 nM. Besides, the IC50 under setting [7] was > 2000 nM, the IC50 under setting [8] is > 2000 nM and the IC50 under setting [9] is > 2000 nM.

With `CC(=O)c1c([S+]([O-])Cc2cc(C)on2)[nH]c2c(F)ccc(F)c2c1=O` (stereo not drawn) [Compound 82, 3-acetyl-5,8-difluoro-2-(((5-methylisoxazol-3-yl)methyl)sulfinyl)quinolin-4(1H)-one], the IC50 runs as follows: under setting [10], > 2000 nM; under setting [11], > 2000 nM; under setting [12], > 2000 nM; under setting [13], > 2000 nM; under setting [14], > 10000 nM; under setting [15], > 2000 nM. Besides, the IC50 under setting [16] is > 2000 nM, the half-inhibitory concentration (IC50) under setting [17] was > 2000 nM and the IC50 under setting [18] was > 2000 nM.

As to `CC(C)C(=O)c1c([S+]([O-])Cc2ccc(SC(F)(F)F)cc2)[nH]c2c(F)ccc(F)c2c1=O` (stereo not drawn) [Compound 85, 5,8-difluoro-3-isobutyryl-2-((4-((trifluoromethyl)thio)benzyl)sulfinyl)quinolin-4(1H)-one], the 50% inhibitory concentration (IC50) reads like this: under setting [10], > 2000 nM; under setting [11], > 2000 nM; under setting [12], > 2000 nM; under setting [13], > 2000 nM; under setting [14], > 10000 nM; under setting [15], > 2000 nM. Moreover, the IC50 is > 2000 nM under setting [16], > 2000 nM under setting [17] and > 2000 nM under setting [18].
